Measurements reported in patent US12384777B2 (Tay Therapeutics Limited, priority 2019, dated 2025).

System: healthy human skin stimulated by a Th2 or Th17 biasing cocktail
Assay: Th2 and Th17 stimulation of human skin explants, IL-4 / IL-17A mRNA
Type: cell-based
Description: • 1. Freshly excised healthy human skin tissue from abdominoplasties is defatted, cleaned and sectioned into 7 mm biopsies. • 2. The biopsies are placed in Transwell® inserts with the epidermis apical and exposed to air and the dermis submerged in media in the basal chamber. • 3. The biopsies are pre-treated overnight at 37° C., 5% CO2 with different compounds and controls added to the media in the basal chamber. • 4. The next day, contents of the basal chamber is replaced with fresh media containing the test compound and a stimulation cocktail for either Th2 inflammation (proprietary Medpharm cocktail) or Th17 inflammation (mix of antibodies against CD3, CD28, IL-4, IFNγ and recombinant IL-1β, IL-6, IL-21, TGF-β). • 5. The biopsies are incubated at 37° C., 5% CO2 for a further 24 hrs. • 6. After harvesting, the biopsies are cut in half, and one half is homogenized and used for RNA extraction by standard methods. IL-4 or IL-17A is assessed by RT-qPCR.

## Cn1cc(-c2cccc(O)c2Oc2ccccc2)c2cc[nH]c2c1=O [Example 1, 4-(3-hydroxy-2-phenoxyphenyl)-6-methyl-1,6-dihydro-7H-pyrrolo[2,3-c]pyridin-7-one]
2.5 μM, Th2 biasing cocktail
  % reduction in IL-4 mRNA (IL-4): +++ (> 75% reduction)
2.5 μM, Th17 biasing cocktail
  % reduction in IL-17A mRNA (IL-17): +++ (> 75% reduction)
Th2 or Th17 biasing cocktail
  reduction of IL-4 or IL-17 levels: > 50%
